Assay results as given in patent publication US5229413A, “Compositions containing indole-2-carboxylate compounds for treatment of CNS disorders” (G. D. Searle & Co., priority 1992, dated 1993).

Legend:
[1] = biological target: N-methyl-D-aspartate (NMDA) receptor site; assay: Glutamate (NMDA) binding assay, L-[3H]glutamate, synaptic plasma membranes; conditions: L-[3H]glutamate 12.5 nM, pH 7.4, 0-4° C.; read-out: Ki apparent, NMDA
Method: The purpose of this assay is to determine the binding affinity of a compound of Formula I for the N-methyl-D-aspartate (NMDA) receptor site. This procedure was carried out as follows:
Synaptic plasma membranes (SPM) were prepared as previously described [Monahan, J. B. and Michel, J., "Identification and Characterization of an N-methyl-D-aspartate-specific L-[^3 H]glutamate Recognition Site in Synaptic Plasma Membranes, J. Neurochem., 48, 1699-1708 (1987)]. The SPM were stored at a concentration of 10-15 mg/ml in 0.32 M sucrose, 0.5 mM EDTA, 1 mM MgSO4, 5 mM Tris/SO4, pH 7.4, under liquid nitrogen. The identity and purity of the subcellular fractions were confirmed by both electron microscopy and marker enzymes. Protein concentrations were determined by using a modification of the method of Lowry [Ohnishi, S. T. and Barr, J. K., "A Simplified Method of Quantitating Proteins Using the Biuret and Phenol Reagents", Anal. Biochem., 86, 193-197 (1978)]. The SPM were thawed at room temperature, diluted twenty-fold with 50 mM Tris/acetate, pH 7.4, incubated at 37° C. for 30 minutes, and centrifuged at 100,000 g for 15 minutes. The dilution, incubation, and centrifugation was repeated a total of three times. This general method involved adding 12.5 nM of the L-[^3 H]glutamate radioligand to the appropriate concentration of the test compound and initiating the assay by the addition of ice cold SPM (0.2-0.45 mg). The binding assays were performed in 1.5 ml centrifuge tubes with the total volume adjusted to 1.0 ml. Additions of test compounds were made in 50 mM Tris/acetate, pH 7.4 and incubations were carried out at 0°-4° C. The incubation time for the NMDA binding assay was 10 minutes. To terminate the incubation, the samples were centrifuged for 15 minutes at 12,000 g and 4° C. in a Beckman Microfuge 12. The supernatant was aspirated and the pelleted membranes dissolved in Beckman Ready-Protein scintillation cocktail and the samples counted on a Beckman LS 5800 or 3801 liquid scintillation counter with automatic corrections for quenching and counting efficiency. Nonspecific binding was defined as the residual binding in the presence of 0.5 mM NMDA and was typically 15-25% of the total binding in the NMDA binding assay. Radioligand binding to the SPM was analyzed using Scatchard and Hill transformations and the Ki values of the compounds determined using logit-log transformations. Calculations and regression analysis were performed using templates developed for Lotus 1, 2, 3 as previously described [Pullan, L. M. "Automated Radioligand Receptor Binding Analysis with Templates for Lotus", Computer Appln. Biosci., 3 131 (1987)]. Binding results are reported in Table II for example compounds of the invention.

[2] = biological target: T1, strychnineinsensitive glycine recognition site (NMDA receptor-ion channel complex) (Rattus norvegicus, UniProt P35439); assay: Glycine binding assay, [3H]glycine, synaptic plasma membranes; conditions: 10 nM [3H]glycine, pH 7.4, rat forebrain SPM; read-out: Ki apparent, Gly
T1 construct: Synaptic plasma membranes (SPM) were prepared from rat forebrain; from tissue; host or cells: rat forebrain synaptic plasma membranes
Method: Synaptic plasma membranes (SPM) were prepared from rat forebrain and stored as previously described [J. B. Monahan and J. Michel, J. Neurochem, 48, 1699-1708 (1987)]. Frozen membranes were thawed and diluted 1:20 with 0.04% triton X-100 in 50 mM tris/acetate (pH 7.4). Following incubation at 37° C. for 30 min., the SPM were collected by centrifugation at 95,000 X g for 15 min. The pellet was resuspended in 50 mM tris/acetate (pH 7.4, triton-free) and hand-homogenized five times. The membranes were again centrifuged as above. The pellet was washed two additional times with 50 mM tris/acetate (without homogenization) and centrifuged. The final pellet was resuspended with homogenization in 50 mM tris/acetate.
In the general receptor binding assay procedure, 10 nM [^3 H]glycine was added to the appropriate concentration of the test compounds and the assay initiated by the addition of 0.2-0.4 mg of ice cold SPM. The assay, which was done in 1.5 ml centrifuge tubes, was adjusted to a total volume of 1.0 ml with all additions being made in 50 mM tris/ acetate, pH 7.4 at 4° C. After a 10 minute incubation at 2° C., the samples were centrifuged for 15 min. at 12,000 g (4° C.) in a Beckman Microfuge 12. The supernatant was aspirated and the tube tip containing the pelleted membranes cut off and agitated in 0.5 ml of Beckman BTS-450 tissue solubilizer for a minimum of 6 hours at room temperature. Beckman MP scintillation cocktail (5 ml) containing 7 ml/liter acetic acid was then added and the samples counted on a Beckman LS 5800 liquid scintillation counter with automatic corrections for quenching and counting efficiency. […] The binding of [^3 H]glycine to the SPM was analyzed using Scatchard and Hill transformations and the Ki for other compounds was determined using logit-log analysis. Calculations and regression analysis were performed using templates developed for Lotus 123 as previously described [Pullan et al, Id.].

Cerebellar cGMP = assay: Assay for effect on cGMP (cerebellum, intracisternal injection); type: in vivo, Swiss Hausche mice; conditions: ± SEM
Method: Male Swiss Hausche mice (25-30 g) were injected intracisternally (i.c.t.) with glycine agonists 10 minutes prior to sacrifice by focussed microwave irradiation. Compounds of the invention were injected intracisternally 2 minutes prior to the agonist. For intracisternal injections, al agonists were dissolved in HCl and diluted with isotonic saline prior to adjustment of the pH to between 6 and 7 with NaOH. The compounds of the invention were dissolved in isotonic saline and all compounds were administered in a volume of 5 μl.
Hydrochloric acid in extracts of the cerebellum were freeze-dried for assay of cGMP with a commercial RIA kit (NEN). Protein determinations (Lowery) and statistics (Dunett's t-test) were performed as described previously [P. L. Wcod et al., Neurochem., 19, 975-982 (1980)]. Groups consisted of 7-10 mice.

Ki [1]: > 100 µM | Ki [2]: 1.3 µM
SMILES: O=C(O)Cc1c(C(=O)O)[nH]c2cc(Cl)ccc12 [Compound No. 6, 2-carboxy-6-chloro-3-indoleacetic acid]
Cerebellar cGMP (Cerebellar cGMP; Compound No. 6 (5 μg) alone): 3.5 ± 0.55 pmol/mg protein | Cerebellar cGMP (Cerebellar cGMP; D-Serine (100 μg) + Compound No. 6 (5 μg)): 5.8 ± 0.96 pmol/mg protein
